Reference: patent US8759385B2, “Composition comprising azole fungicide and water soluble metal salt” (Conopco Inc., priority 2009, dated 2014)

System: Trypsin
Assay: anti-trypsin effect (normalised trypsin activity)
Type: biochemical
Conditions: control (trypsin only) = 1.0

Compound	Normalised activity (Zinc gluconate 0.00156% alone)	Normalised activity (Zinc gluconate 0.003125% alone)	Normalised activity (Zinc gluconate 0.00625% alone)	Normalised activity (Climbazole 0.00391% alone)	Normalised activity (Climbazole 0.00781% alone)	Normalised activity (Climbazole 0.01563% alone)	Normalised activity (Climbazole 0.03125% alone)	Normalised activity (Climbazole 0.0625% alone)	Normalised activity (Climbazole 0.125% alone)
Zinc gluconate	1.03	0.957	0.8404	–	–	–	–	–	–
CC(C)(C)C(=O)C(Oc1ccc(Cl)cc1)n1ccnc1 (stereo not drawn) [Climbazole]	–	–	–	1.15	1.31	1.41	1.30	0.908	1.06
